Data as given in a melting point compilation (Tetko et al.; mined from patent text by program, amines drawn as free bases though some values may be those of a salt).

melting point	Compound
204 to 205 °C	Nc1ccc(NC(=O)c2ccc(CNC(=O)OCc3cccnc3)cc2)cc1
269 to 272 °C	O=C1NC(=O)c2c1c(-c1ccccc1Cl)cc1c2c2cc(O)ccc2n1CCCc1nnn[nH]1
122 to 125 °C	CC(C)C1C(=O)Nc2ccc(OCC3CO3)cc21 (stereo unspecified)
116 to 117 °C	CC(C)COc1c(-c2ccc(S(C)(=O)=O)cc2)cnn(-c2ccc(F)c(F)c2)c1=O
185 °C	S=C(Nc1ccc(Cl)cc1)NC12CC3CC(CC(C3)C1)C2
146 to 148 °C	COc1ccc(CC(=O)N2CCn3c(c(C(N)=O)c(Cl)c3-c3ccccc3)C2)cc1
135 to 139 °C	COc1nc(-n2ncc(C#N)c2N)c(Cl)cc1C(F)(F)F
149 to 154 °C	COc1cc(C(O)c2ccnn2C)c(Cl)c(Cl)c1OC (stereo unspecified)
115 to 116 °C	O=C(O)C(=O)NC1CCCCCCC1
109 to 111 °C	CCCCCOc1ccc(Cn2c(C)nc(Cl)c2COC(=O)NS(=O)(=O)c2ccc(C)cc2)c(Cl)c1
147 to 158 °C	Cc1cc(C)c(COc2cccc3c2C(=O)c2c(Cl)ccc4c2c-3nn4CCNCCO)c(C)c1
262 to 263 °C	CCn1nc(-c2ccccc2)c(C(C)=O)c(Nc2ccc(O)c3ncccc23)c1=O
132 to 133 °C	O=C(O)C(=O)c1ccc(OC/C=C/c2ccc(F)cc2)cc1
112 to 113 °C	O=C(O)c1ccc(C(F)F)o1
161 to 162 °C	O=C(O)CCc1ccc2c(c1)OC[C@@H](Cc1ccccc1)[C@@H]2O (relative stereo)
179 to 180 °C	Fc1ccccc1-c1c(OCc2ncnn2CC(F)F)nn2c(-c3ccccc3F)nncc12
189 to 190 °C	Cc1cc(-c2nc3cccnn3c2-c2ccnc(NC(=O)c3ccccc3)c2)ccc1F
227 to 229 °C	COc1ccc(-c2c(Cl)c(CN3C(=O)CCC3=O)nc3sc4c(c23)CC(C)(C)C(O)C4)cc1 (stereo unspecified)
46 to 50 °C	CC(=O)SCCS(=O)(=O)N1CCC[C@H]1C(=O)OC(C)(C)C
58.5 to 59.5 °C	C#CCOC[C@@H](NC(C)=O)C(=O)OC
256 to 260 °C	CN(C)C1CN(c2c(F)cc3c(=O)c(C(=O)O)cn(C4CC4)c3c2F)C1
159 to 163 °C	CCCCN=C(O)c1c(Cl)c(Cl)c(Sc2ccccc2)c(Cl)c1C(=O)O
226 to 229 °C	CC(=O)ONC(=N)c1ccc(-c2ccc(-c3ccc(C(=N)NOC(C)=O)cc3C)o2)nc1
90 to 92 °C	CCCC(=O)NCCC1=CCc2cc(F)c(OC)cc21
160 to 162 °C	COc1cccc(NC(=O)NCc2cccc3c2C(=O)N(C2CCC(=O)NC2=O)C3=O)c1 (stereo unspecified)

melting point	Compound
98 to 100 °C	CC(C(=O)O)c1cccc(N)c1 (stereo unspecified)
58 to 59 °C	CCCCCCCCCCCCNc1nccc(NCCCO)n1
52 to 53.5 °C	COCc1nc(-c2ccc(Br)c(C)c2)no1
180 to 183 °C	CCCc1c(OCCCOc2ccc(C(=O)O)cc2)ccc(C(C)=O)c1O
214 to 216 °C	Cc1cc(O)n2nc(SCc3ccccc3)nc2c1
104 °C	COc1ccc(N)c(S)c1
149 °C	CON(Cc1ccc(Cl)c(Cl)c1)C(=O)C1=C(O)C(=O)N(C)C1
156 to 158 °C	CSC1=Nc2cc(Cl)ccc2N(C)c2cscc21
206 to 207 °C	CCN(CC)c1ccc2c(c1)OC(=O)N(c1ccccc1)C2(c1ccc(N(C)C)cc1)c1ccc(N(C)C)cc1
282 to 285 °C	Cc1ccc2c(c1)C(c1ccccc1)CC(NC(=O)Nc1cccc(Cl)c1)C(=O)N2CC(=O)NC(C)(C)C (stereo unspecified)
255 to 257 °C	CC1(C)OC(=O)Nc2ccc(-c3ccc(Cl)cc3)cc21
267 °C	Fc1cc(-c2cc(C(F)(F)F)n3cnc(-c4ccncc4)c3n2)ccc1C(F)(F)F
112 °C	COCCOC(=O)OC[C@@H]1CC(c2ccc(-c3ccc(N4C[C@H](Cn5ccnn5)OC4=O)cc3F)cn2)=NO1
125 to 128 °C	CN(C)CCc1[nH]c2ccccc2c1CSC(=S)N(C)C
160 to 161 °C	Nc1nc(-c2ccc(CN3CCCCCC3)s2)n[nH]1
161 to 163 °C	COCc1nsc2ccc(-n3c(=O)cc(C(F)(F)F)n(C)c3=O)cc12
> 250 °C	O=Cc1c[nH]c2c1ccc1c2[nH]c2cc(Cl)cc(Cl)c21
37 to 40 °C	CCNC(=O)c1ccccc1NC(C)(C)C
229 to 231 °C	Cc1cc(C)c(-c2cn(C)c3nc(N)n(C)c(=O)c23)c(C)c1
190 to 191 °C	COc1ccc(C(=O)Nc2c(Cl)cncc2Cl)cc1OC1COCC1OCc1ccccc1 (stereo unspecified)
127 to 129 °C	CS(=O)(=O)NCc1ccc(-n2c(-c3cccnc3N)nc3cc(-c4cccnc4)cnc32)cc1
276 °C	O=C(Nc1nnn[nH]1)c1cccc([N+](=O)[O-])c1
180 to 182 °C	O=c1cnc(-c2cc(Br)cc(-c3ccsc3)c2)nn1CC(F)(F)F
183 °C	COc1ccc(CNc2ncnc3c2ncn3C2OC(Cn3cc(C)nn3)C(O)C2O)cc1 (stereo unspecified)
221 to 222 °C	CCOCc1nc2c(N)nc3cc(Br)cnc3c2n1CC(C)(C)F

melting point	Compound
116 to 117 °C	CCOC(=O)c1cnc(N(Cc2cc(Br)ccc2OCc2ccccc2)C(=O)OC(C)(C)C)cn1
92 to 94 °C	CCCc1c(COc2ccc(Cc3nnn(CCCC(=O)O)n3)cc2)ccc(C(C)=O)c1O
90 to 92 °C	NC1=CC=C(c2ccccc2)CC1(Cl)C(O)(C1CC1)C1CC1 (stereo unspecified)
157 to 159 °C	COC(C(N)=S)c1ccccn1 (stereo unspecified)
146 to 147 °C	O=c1ccn(-c2cccc(Cl)c2)nc1-c1ccnn1-c1ccccc1
300 to 302 °C	O=C(Nc1ccc(-c2ncc(-c3ccc(NC(=O)C4CCCCCC4)cc3)[nH]2)cc1)c1c(F)c(F)c(F)c(F)c1F
123 to 125 °C	CCCCc1ccc(NC(N)=S)cc1
221 to 223 °C	CC1(c2ccc(Br)cc2)Cc2cc(O)c(Cl)c(Cl)c2C1=O (stereo unspecified)
87 to 88 °C	COCCOc1c2ccccc2c(C=O)c2ccccc12
152 to 153 °C	COc1cccc(Oc2ccc(CCNc3ncnc4nccnc34)cc2)n1
188 to 190 °C	Cc1cn2cccc(N[C@@H]3c4ccccc4C[C@H]3O)c2n1 (relative stereo)
168 to 170 °C	CC(=O)[NH+]([O-])C[C@@H]1CN(c2ccc(N3CCN(S(C)(=O)=O)CC3)c(F)c2)C(=O)O1 (stereo partly specified)
169 to 179 °C	Cc1cc(NS(=O)(=O)c2ccccc2)cnc1CCCC(=O)O
149 °C	CCN(CC)S(=O)(=O)c1cc2c(c(C(=O)O)c1)OCCO2
79 to 80 °C	Cc1ccc(CO[C@H]2CO[C@@H](c3ccccc3)OC2)cc1C
63 to 64 °C	CCCCc1c(/C=C/C(=O)OC)cc(OC)c2ccccc12
160 to 162 °C	CCOCc1nc2c(N)nc3cc(OCCCn4cccc4)ccc3c2n1CC(C)C
158 to 160 °C	CN1C(=O)c2cc(N)ccc2Oc2ncccc21
140 to 160 °C	O=C1C=C(c2ccccc2)CC(C(=O)O)C1 (stereo unspecified)
176 to 177 °C	COc1cc(Nc2nccc(-c3ccc(N4CCNCC4)nc3)n2)cc(OC)c1
157 to 161 °C	NNC(=O)Cc1cc(C(=O)c2ccc(Br)cc2)sc1-c1ccccc1
192 to 195 °C	O=C(Nc1cccc(-c2c(-c3ccccc3)cnc3c(C(F)(F)F)cccc23)c1)Nc1ccccc1Cl
346 to 347 °C	Cc1cc(O)n2nc(S(=O)(=O)Nc3c(Cl)ccc(C)c3Cl)nc2n1
119 to 123 °C	CSC(=NS(=O)(=O)c1ccccc1Cl)SC
290 to 292 °C	Cc1nc(NC(=O)c2cc[nH]c(=O)c2)sc1C(=O)NCc1ccccc1

melting point	Compound
240 to 242 °C	Cc1cc2oc(=O)c(NC(N)=O)c(-c3ccccc3C)c2cc1Cl
170 °C	OC1CSC(Oc2cccnc2-c2nnn[nH]2)C(O)C1O (stereo unspecified)
187 to 188 °C	COc1ccc(-n2ccnc2)cc1C(O)c1c(C)cc(C)cc1C (stereo unspecified)
208 °C	Clc1cc2c(nn1)-c1ccccc1OC2
39 to 40 °C	CCOC(=O)COc1cccc(Cl)c1
94 to 95 °C	Cc1cc2c(cc1-n1c(C)ccc1C)OC(=O)C2C (stereo unspecified)
103 to 104 °C	N#CCC1CCN(C(c2ccccc2)c2ccccc2)CC1
128 to 130 °C	Cc1ccc(-c2ccc3c(c2)C=C(C(=O)NC2CCN(CC4=CCCCCCCC4)CC2)CCO3)cc1
142 to 144 °C	COc1cc2c(cc1OC)CCCC(C(=O)N1CCN(Cc3cc(OC)c(OC)c(OC)c3)C(C(=O)O)C1)=C2 (stereo unspecified)
72 to 74 °C	CC(C)(Br)C(=O)ON1C(=O)CCC1=O
257 to 261 °C	CC(C)n1nc(-c2c(OCC(N)=O)nc(N)nc2-c2ccccc2)ccc1=O
165 °C	CO/N=C(/C)c1cccc(NC(=O)NCC(=O)N(CC(=O)N(C)c2ccccc2)c2ccccc2)c1
100 to 103 °C	CCCCCCCCCCCCCCOc1ccc(CC(=O)Nc2ccccc2CBr)cc1
110 to 111 °C	CCCCCCCSc1nc(C)c(O)c(C)n1
141 to 142 °C	O=C(O)c1ccc(CCCc2ccc(Br)cc2OCc2ccccc2)cc1
108 to 110 °C	COC(=O)c1ccc(COc2c(C)c(C)c3c(c2C)C(c2ccc(C(C)C)cc2)C(C)(C)O3)cc1 (stereo unspecified)
> 300 °C	Cc1nn(C)c2nc(N)[nH]c(=O)c12
> 300 °C	Cc1cc2c(O)nc(O)nc2s1
158 °C	Oc1ccc2c(c1)SCCc1c-2n(CCCCCN2CCCC2)c2ccccc12
88.9 to 90.3 °C	CCCn1c(=O)n2c(=O)n(COCc3ccccc3)nc2c2c1ncn2COCc1ccccc1
103 to 106 °C	CCC1=CC(=O)C2(C)CCC3c4ccc(OC)cc4CCC3C12 (stereo unspecified)
139 to 140 °C	CCOC(=O)C1(C)ON=C(C2(C)CC(c3ccc(OC)c(OC4CCCC4)c3)=NO2)O1 (stereo unspecified)

Compound	melting point
O=C(O)c1cn(C2COC2)c2cc(N3CCNCC3)c(F)c(O)c2c1=O	266 to 273 °C
CN1C2CCC1CN(C(=O)c1ccco1)C2	106 °C
COc1cccc(C2(CNC(=O)Nc3c(C(C)C)cc(N)cc3C(C)C)CCN(c3ccccc3O)CC2)c1	207 to 208 °C
O=C(CCl)NNC1=Nc2ccc(Cl)cc2N(c2ccccc2)C(=O)C1	210 to 215 °C
